Data from US20130324605A1, “USES OF CIMIRACEMATE A AND RELATED COMPOUNDS FOR TREATING INFLAMMATION AND MODULATING IMMUNE RESPONSES” (VERSITECH LIMITED, priority 2010, published 2013).

Legend:
[1] = test system: LPS-induced TNF-α protein production; assay: LPS-induced TNF-α production in primary blood macrophages (ELISA); type: cell-based; details: Homo sapiens, Macrophage, PBMac
Description: FIGS. 6A-6B show inhibition of LPS-induced TNF-α production by B22EES1-8-3 and dexamethasone. PBMac were incubated with (A) 140 μM B22EES1-8-3 or (B) 1.3 or 5.1 μM dexamethasone (Dex) for 24 hr prior to the addition of 1 ng/mL and 10 ng/mL LPS for another 24 hr. The culture supernatants were collected and assayed for TNF-α by ELISA. The results shown were the mean values±standard derivation (S.D.) of 6 independent experiments, with cells obtained from different donors. * P<0.05, compared with the corresponding control.
Cell Culture and Primary Blood Macrophage Isolation Human peripheral blood monocytic cells (PBMC) were isolated from the buffy coat of healthy donor blood supplied by Hong Kong Red Cross by Ficoll-Paque (Amersham Pharmacia Biotech, Piscataway, N.J.) density gradient centrifugation as described in our previous reports^36-38. In brief, the buffy coat was spun at 3000 rotations per min (rpm) for 15 min to separate the blood cells and the plasma. The heat inactivated serum was filtered for future use.
The adherent monocytic cells were detached and seeded onto tissue culture plates and incubated for another 7-14 days in order to differentiate the primary blood monocytic cells to primary blood macrophages (PBMac).
Culture supernatants of the LPS-treated PBMac, with or without B22EES1-8-3 pretreatment, were collected at different time intervals and stored at −70° C. The levels of the secreted TNF-α were measured by ELISA kits specific for the cytokine (R&D system, Minneapolis, Minn.).
To confirm the activities of Cim A in suppressing TNF-α production, Cim A was incubated with PBMac for 24 hr prior the addition of LPS at concentrations of 1 ng/mL and 10 ng/mL for 24 hr. The culture supernatants were collected and measured by ELISA for the level of secreted TNF-α.
To further compare the efficiency of Cim A with existing drugs, dexamethasone, a potent immunosuppressive corticosteroid, was used as a prototype. PBMac were treated with dexamethasone for 24 hr prior to the addition of LPS at concentrations of 1 ng/mL and 10 ng/mL for 24 hr.

[2] = test system: ERK1/2; assay: LPS-induced phosphorylation of ERK1/2 in PBMac (Western blot); type: cell-based, human; details: 140 μM for 24 h prior to 10 ng/mL LPS for 15 min
Description: FIGS. 7A-7C show the effects of Cim A (B22EES1-8-3) on LPS-induced phosphorylation (phospho-) of ERK1/2 and p38 MAP kinases, and nuclear translocation of NF-KB p65. PBMac were incubated with B22EES1-8-3 (140 μM) for 24 h prior to the addition of 10 ng/mL LPS for an additional 15 min. Cytoplasmic (A, B) and nuclear (C) proteins were harvested for Western Blotting: (A) Cytoplasmic proteins: phospho-ERK1/2 and total ERK1/2. (B) Cytoplasmic proteins: phospho-p38 and total p38 kinase. (C) Nuclear proteins: upper panel, NF-κB p65 and lamin B; lower panel, the intensity of corresponding lanes in the gel photograph of NF-κB p65 was shown. […]
Whole cell lysate (20 μg) or nuclear protein (2 μg) were separated by sodium dodecyl sulfate polyacrylamide gel electrophoresis (SDS-PAGE) and transferred to nitrocellulose membranes for probing overnight with the respective antibodies specific for the phosphorylated or total form of ERK1/2 and p38 MAPK (Cell Signaling Technology, Beverly, Mass.), NF-KB p65 protein and lamin B (Santa Cruz Biotechnology, Santa Cruz, Calif.). […] In order to quantify the results from the Western blots, the gels were scanned and the intensity of the bands was analyzed by a computer program Quantity One from BioRad. […]

[3] = test system: 5-LOX; assay: 5-LOX inhibitor screening assay (Cayman kit); type: biochemical; details: 12.5, 25 and 50 μg/ml, linoleic acid substrate, 5 min incubation, FIG. 1A
Description: The 5-LOX inhibition assay was performed using Cayman's Lipoxygenase Inhibitor Screening Assay Kit (Cayman Chemical Company, Ann Arbor, Mich.) according to the manufacturer's instructions. The 5-LOX enzyme and Linoleic acid (Substrate) were added together in the presence of DMSO (Control) and Cim A at a concentration ranging from 12.5 to 50 μg/ml. After incubation for 5 min, developing agents were added. The production of hydroperoxides was measured and quantified with the use of a microplate reader at wavelength of 490 nm. The 5-LOX enzymatic activity is calculated as nmol/min/ml.
Briefly, 5-LOX inhibition assay was performed by using Cayman's lipoxygenase inhibitor screening assay kit (Cayman Chemical Company, Ann Arbor, Mich.) according to the manufacturer's instructions. The 5-LOX and linoleic acid (substrate) were added simultaneously into dimethyl sulfoxide (DMSO) (Control) or Cim A at a concentration of 12.5, 25, and 50 μg/ml, respectively. After incubation for 5 min, developing reagents for the 5-LOX inhibition assay were added. Hydroperoxide production was measured using a microplate reader at a wavelength of 490 nm. The 5-LOX enzymatic activity is calculated as nmol/min/ml.

[4] = test system: leukotriene B4 (LTB4) production; assay: Leukotriene B4 production in activated human blood mononuclear cells; type: cell-based; details: 25 or 50 μg/ml for 1 hour, then calcium ionophore A23187 30 min, PBMC, FIG. 1B
Description: Freshly isolated human blood mononuclear cells (PBMC) (1×10^7) were pre-treated with 0.05% DMSO or Cim A (25 or 50 μg/ml) for 1 h, followed by addition of 5 μM Calcium ionophore A23187 (Sigma Aldrich, St. Louis, Mo.) for 30 min. After centrifugation for 1 min, the supernatants were collected. The level of leukotriene B4 (LTB4) was measured using LTB4 parameter assay kit (R&D Systems, Minneapolis, Minn.).
This Example investigates the effects of Cim A on LTB4 production. Briefly, freshly isolated human blood mononuclear cells (1×10^7) were pretreated with 0.05% DMSO or Cim A (25 or 50 μg/ml) for 1 hour, followed by the addition of calcium ionophore A23187 at a concentration of […] (Sigma Aldrich, St. Louis, Mo.) for 30 min. After centrifugation for 1 min, the supernatant was collected. The level of leukotriene B4 (LTB4) was measured by using a LTB4 assay kit (R&D Systems, Minneapolis, Minn.).

Compound | inhibition at 1.3 µM ([1]; 1.3 μM for 24 hr prior to LPS for 24 hr) [%] | inhibition at 5.1 µM ([1]; 5.1 μM for 24 hr prior to LPS for 24 hr) [%] | LPS-induced phosphorylation of ERK1/2 [2] | inhibition at 140 µM ([1]; 140 μM for 24 hr prior to LPS 1 ng/mL for 24 hr) [%] | inhibition at 140 µM ([1]; 140 μM for 24 hr prior to LPS 10 ng/mL for 24 hr) [%] | 5-LOX enzymatic activity (hydroperoxide production) [3] | production of LTB4 [4]
C[C@@H]1C[C@H]2[C@@H]3CCC4=CC(=O)C=C[C@]4(C)[C@@]3(F)[C@@H](O)C[C@]2(C)[C@@]1(O)C(=O)CO [dexamethasone, Dexamethasone, reference compound] | 32 ± 7.5 | 25 ± 6.3 | – | – | – | – | –
COc1ccc(/C=C/C(=O)OCC(=O)Cc2ccc(O)c(O)c2)cc1O [Cim A, Cimiracemate A] | – | – | suppressed | 47 ± 19 | 58 ± 30 | potently suppressed 5-LOX activity in a dose-dependent manner | inhibits the production of LTB4 in a dose-dependent manner
